Reference: PubChem BioAssay AID330 (DTP/NCI, 2004)
Inconclusive results and toxic doses are left out. The calls were made as follows: active = survival T/C of 150% or more; inactive = T/C below 125% in these data.

Tested on: P388 leukemia ip, CD2F1 mice, survival T/C
Assay: NCI In Vivo Anticancer Drug Screen. Data for tumor model P388 Leukemia (intraperitoneal) in CD2F1 (CDF1) mice
Conditions: endpoint: median survival time, higher = longer survival
How it was run: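 Mice carrying the transplanted tumor received test compound or vehicle. Survival was recorded in each group, and the value is the treated-group measurement divided by that of the vehicle-treated control group.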

[1] = dose: 12.5 mg/kg/injection, schedule: Q01DX009 (ip), vehicle: water
[2] = dose: 25.0 mg/kg/injection, schedule: Q01DX009 (ip), vehicle: water
[3] = dose: 50.0 mg/kg/injection, schedule: Q01DX009 (ip), vehicle: water
[4] = dose: 100.0 mg/kg/injection, schedule: Q01DX009 (ip), vehicle: water
[5] = dose: 60.0 mg/kg/injection, schedule: Q01DX005 (ip), vehicle: saline with Tween-80
[6] = dose: 120.0 mg/kg/injection, schedule: Q01DX005 (ip), vehicle: saline with Tween-80
[7] = dose: 240.0 mg/kg/injection, schedule: Q01DX005 (ip), vehicle: saline with Tween-80
[8] = dose: 25.0 mg/kg/injection, schedule: Q01DX009 (ip), vehicle: saline
[9] = dose: 50.0 mg/kg/injection, schedule: Q01DX009 (ip), vehicle: saline
[10] = dose: 100.0 mg/kg/injection, schedule: Q01DX009 (ip), vehicle: saline
[11] = dose: 200.0 mg/kg/injection, schedule: Q01DX009 (ip), vehicle: saline
[12] = dose: 60.0 mg/kg/injection, schedule: Q01DX005 (ip), vehicle: Klucel (hydroxypropylcellulose) (HPC)
[13] = dose: 120.0 mg/kg/injection, schedule: Q01DX005 (ip), vehicle: Klucel (hydroxypropylcellulose) (HPC)
[14] = dose: 240.0 mg/kg/injection, schedule: Q01DX005 (ip), vehicle: Klucel (hydroxypropylcellulose) (HPC)
[15] = dose: 50.0 mg/kg/injection, schedule: Q01DX005 (ip), vehicle: Klucel (hydroxypropylcellulose) (HPC)
[16] = dose: 100.0 mg/kg/injection, schedule: Q01DX005 (ip), vehicle: Klucel (hydroxypropylcellulose) (HPC)
[17] = dose: 200.0 mg/kg/injection, schedule: Q01DX005 (ip), vehicle: Klucel (hydroxypropylcellulose) (HPC)
[18] = dose: 25.0 mg/kg/injection, schedule: Q01DX009 (ip), vehicle: saline with Tween-80
[19] = dose: 50.0 mg/kg/injection, schedule: Q01DX009 (ip), vehicle: saline with Tween-80
[20] = dose: 100.0 mg/kg/injection, schedule: Q01DX009 (ip), vehicle: saline with Tween-80
[21] = dose: 100.0 mg/kg/injection, schedule: Q04DX003 (ip), vehicle: saline
[22] = dose: 200.0 mg/kg/injection, schedule: Q04DX003 (ip), vehicle: saline

Measured: T/C

O=C(O)c1nnc(C(=O)O)nn1
inactive: dose: 6.25 mg/kg/injection, schedule: Q01DX009 (ip), vehicle: water 98 % of control | [1] 103 % of control | [2] 102 % of control | [3] 100 % of control | [4] 90 % of control

CN1CCC23c4c5ccc(O)c4OC2C(O)C=CC3C1C5 (configuration not stated)
inactive: dose: 32.0 mg/kg/injection, schedule: Q01DX009 (ip), vehicle: saline 97 % of control | dose: 64.0 mg/kg/injection, schedule: Q01DX009 (ip), vehicle: saline 106 % of control | dose: 128.0 mg/kg/injection, schedule: Q01DX009 (ip), vehicle: saline 95 % of control

COc1ccc(NC(=O)CCC(=O)CC(=O)c2ccncc2)cc1
inactive: [5] 101 % of control | [6] 103 % of control | [7] 93 % of control

O=C1C2=C(CCC2)C(=O)N1c1ccc(N2C(=O)C3=C(CCC3)C2=O)cc1
inactive: dose: 1.56 mg/kg/injection, schedule: Q01DX009 (ip), vehicle: distilled water + Tween-80 101 % of control | dose: 3.13 mg/kg/injection, schedule: Q01DX009 (ip), vehicle: distilled water + Tween-80 102 % of control | dose: 6.25 mg/kg/injection, schedule: Q01DX009 (ip), vehicle: distilled water + Tween-80 100 % of control | dose: 12.5 mg/kg/injection, schedule: Q01DX009 (ip), vehicle: distilled water + Tween-80 99 % of control | dose: 25.0 mg/kg/injection, schedule: Q01DX009 (ip), vehicle: distilled water + Tween-80 107 % of control | dose: 50.0 mg/kg/injection, schedule: Q01DX009 (ip), vehicle: distilled water + Tween-80 103 % of control | dose: 100.0 mg/kg/injection, schedule: Q01DX009 (ip), vehicle: distilled water + Tween-80 119 % of control

OCC[N+]12CN3CN(CN(C3)C1)C2
inactive: [8] 108 % of control | [9] 110 % of control | [10] 111 % of control | dose: 178.0 mg/kg/injection, schedule: Q01DX009 (ip), vehicle: saline 118 % of control | [11] 118 % of control | dose: 266.0 mg/kg/injection, schedule: Q01DX009 (ip), vehicle: saline 118 % of control

COc1cccc(C(O)c2ccncc2C)c1OC (configuration not stated)
inactive: [1] 100 % of control | [2] 99 % of control | [3] 100 % of control | [4] 99 % of control | dose: 200.0 mg/kg/injection, schedule: Q01DX009 (ip), vehicle: water 99 % of control

CSc1nn(CCC#N)c(=O)[nH]c1=O
inactive: dose: 25.0 mg/kg/injection, schedule: Q01DX005 (ip), vehicle: water 104 % of control | dose: 50.0 mg/kg/injection, schedule: Q01DX005 (ip), vehicle: water 103 % of control | [12] 105 % of control | dose: 100.0 mg/kg/injection, schedule: Q01DX005 (ip), vehicle: water 110 % of control | [13] 100 % of control | [14] 100 % of control

C=C(Br)C(=NC(C)(C)C)Nc1ccc(Cl)cc1
inactive: dose: 6.25 mg/kg/injection, schedule: Q01DX005 (ip), vehicle: Klucel (hydroxypropylcellulose) (HPC) 107 % of control | dose: 12.5 mg/kg/injection, schedule: Q01DX005 (ip), vehicle: Klucel (hydroxypropylcellulose) (HPC) 114 % of control | [15] 98 % of control | [16] 103 % of control | [17] 102 % of control

O=C(O)c1nc2cn1/C=C\C=NCC1=CN3C=CC=NC3(C(=O)O)N1C2 (configuration not stated)
inactive: [18] 101 % of control | [19] 109 % of control | [20] 95 % of control

COc1cc(Br)cc(OC)c1N
inactive: [19] 97 % of control | [20] 100 % of control | dose: 200.0 mg/kg/injection, schedule: Q01DX009 (ip), vehicle: saline with Tween-80 105 % of control

Cc1cc(OC(=O)c2ccccc2OS(N)(=O)=O)ccc1Cl
inactive: [12] 98 % of control | [13] 97 % of control | [14] 94 % of control

CC(=O)OCC1OC(OC2CC(=O)C[C@H]3C(=O)N(c4ccccc4)C(=O)[C@@H]23)C(OC(C)=O)C(OC(C)=O)C1OC(C)=O (some centres not stated)
inactive: [5] 102 % of control | [6] 103 % of control | [7] 92 % of control

Cc1ccc(S(=O)(=O)N2c3ccccc3CCN2/C=C/c2ccccc2)cc1
inactive: [15] 100 % of control | [16] 93 % of control | [17] 96 % of control

O=C(O)CCC(=O)OCCNCCOC(=O)CCC(=O)O
inactive: [9] 92 % of control | [10] 96 % of control | [11] 99 % of control

C=CCOc1ccccc1C(=O)NC(O)(C(F)(F)F)C(F)(F)F
inactive: dose: 50.0 mg/kg/injection, schedule: Q04DX002 (ip), vehicle: suspension in saline 100 % of control | dose: 100.0 mg/kg/injection, schedule: Q04DX002 (ip), vehicle: suspension in saline 104 % of control | dose: 200.0 mg/kg/injection, schedule: Q04DX002 (ip), vehicle: suspension in saline 98 % of control

Cc1ccc(C(=O)Nc2ccccn2)cc1
inactive: dose: 50.0 mg/kg/injection, schedule: Q01DX009 (ip), vehicle: Klucel (hydroxypropylcellulose) (HPC) 100 % of control | dose: 100.0 mg/kg/injection, schedule: Q01DX009 (ip), vehicle: Klucel (hydroxypropylcellulose) (HPC) 93 % of control | dose: 200.0 mg/kg/injection, schedule: Q01DX009 (ip), vehicle: Klucel (hydroxypropylcellulose) (HPC) 100 % of control

CNC(=S)N/N=C\C(C)=N/Nc1ccc(F)cc1
inactive: [21] 99 % of control | [22] 99 % of control | dose: 400.0 mg/kg/injection, schedule: Q04DX003 (ip), vehicle: saline 94 % of control

O=C(O)C1Cc2c([nH]c3ccccc23)C(C(=O)O)N1 (configuration not stated)
inactive: dose: 50.0 mg/kg/injection, schedule: Q04DX003 (ip), vehicle: saline 95 % of control | [21] 95 % of control | [22] 93 % of control

C[C](C)(C)[Sn](=[O])[C](C)(C)C
inactive: dose: 6.25 mg/kg/injection, schedule: Q01DX009 (ip), vehicle: saline 95 % of control | dose: 12.5 mg/kg/injection, schedule: Q01DX009 (ip), vehicle: saline 97 % of control | [8] 99 % of control

C#CCOc1ccc(C)cc1
inactive: [18] 108 % of control | [19] 108 % of control | [20] 113 % of control

CN1C(=O)CN=C(c2ccccn2)c2cc(Cl)ccc21
inactive: dose: 75.0 mg/kg/injection, schedule: Q01DX001 (ip), vehicle: saline with Tween-80 104 % of control | dose: 150.0 mg/kg/injection, schedule: Q01DX001 (ip), vehicle: saline with Tween-80 104 % of control | dose: 300.0 mg/kg/injection, schedule: Q01DX001 (ip), vehicle: saline with Tween-80 104 % of control

O=c1oc2ccccc2n1P(=O)(N1CCOCC1)N1CCOCC1
inactive: [9] 100 % of control | [10] 98 % of control | [11] 95 % of control
